Experimental data reported in patent US20210121482A1, “WITHANOLIDES FOR THE TREATMENT OF CACHEXIA” (University of Louisville Research Foundation, Inc., priority 2019, published 2021).

Key:
[1] = Body composition by DEXA scan; assay type: in vivo, mice; settings: 2 and 6 mg/kg
Protocol: Analysis of Body Composition: Body fat and lean mass composition, as well as the bone mineral content and density, excluding head region of interest (ROI), were determined by dual-energy X-ray absorptiometry (DEXA) scan using a mouse densitometer (PIXImus 2; Lunar, Madison, Wis., USA). According to the manufacturer's guidelines to calibrate and validate the performance of the apparatus, a “mouse phantom” provided with the machine was scanned before scanning the first mouse. Animals were […] immediately before assessment by DEXA scan. The mouse was then transferred to the disposable PIXImus measuring tray in the prone position with their head in a loosely fitting nose cone to aid positioning. Upon completion of the DEXA scan, approximately five minutes, the mouse was placed on ice to preserve tissue prior to collection.

[2] = system: Tn-I, AT2R and pro-inflammatory cytokines in the heart; assay: qPCR of heart; assay type: in vivo, Mus musculus; settings: for relative transcript level of AT2R in the heart: compared to control
Protocol: (§1) Total RNA Extraction and qPCR: Isolation of total RNA from xenografted tumor samples was performed using an RNeasy® Mini Kit (Qiagen Catalog #74104) according to the manufacturer's instructions. Isolation of total RNA from skeletal muscle was performed using an RNeasy® Fibrous Tissue Mini Kit (Qiagen Catalog #74704) according to the manufacturer's instructions. First strand cDNA was synthesized using 1 μg of purified RNA and a commercially available kit (iScript™ cDNA synthesis, Bio-Rad Catalog #170-8891), Quantification of mRNA expression was performed similar to as previously described (Hindi and Kumar, 2016) using the SYBR Green dye method on a StepOnePlus™ system (Applied Biosystems) using gene-specific primers, as shown in Table 1.
(§2) Isolation and preparation of total RNA was performed as described in Example 1.

angiotensinogen (AGT) = assay: qPCR of angiotensinogen in tumor tissues; assay type: in vivo, Homo sapiens
Protocol: as §1, §2

[3] = system: A2780 ovarian cancer cells; assay: Tumor burden: free peritoneal tumors and bilateral ovaries (Example 3); assay type: in vivo, mice; settings: tumor-bearing
Source text: Experimental tumors were induced as described in Example 2.
No significant difference in tumor weight between the two doses of WFA was observed (p=0.65).
The IP tumors were metastasized to select organs/anatomic regions known to be highly estrogen-responsive, including free-peritoneal tumors shown in FIG. 19D and bilateral ovaries shown in FIG. 19E.

CAOV3 = CAOV3 cells; cited from earlier work
[4] = system: poly-ubiquitinated proteins; assay: Immunoblot for poly-ubiquitinated proteins; assay type: in vivo, mice; settings: WFA treatment, 2 and 4 mg/kg
Protocol: Protein Extraction and Western Blotting: Quadriceps femoris (QF) samples were homogenized in chilled RIPA buffer (Sigma) supplemented with a Complete Mini Protease Inhibitor tablet (Roche Molecular Biochemicals, Indianapolis, Ind.). Tissue lysates were centrifuged at 10,000 RPM and the supernatants were collected. Protein concentration for each sample was determined using the Bradford reagent method (Bio-Rad), according to manufacturer's instructions. Protein lysates (50 μg) were separated on 10% SDS-PAGE gels at 100 volts for 2 h. The proteins were transferred to nitrocellulose membranes at 100 volts for 90 minutes. The membranes were blocked with 5% non-fat milk in Tris Buffered Saline supplemented with Tween-20 (0.5%; TBS-T) for 30-60 minutes. The membranes were then washed 3 times with TBS-T for 5 minutes. The membranes were then incubated with primary antibody at 4° C. overnight. The membranes were washed 3 times with TBS-T for 5 minutes each followed by incubation in TBS-T containing horseradish peroxidase conjugated secondary antibody (1:2000 dilution) for 1 h. The membranes were rinsed 3 times with TBS-T for 5 minutes each. Visualization of immunoreactive bands was enhanced using chemiluminescence reagents (Sigma). […]

[5] = system: TA muscle myofibers (MyHC I, IIa, IIb); assay: Skeletal muscle fiber-type immunostaining; assay type: in vivo, mice
Protocol: Skeletal Muscle Fiber-type Immunostaining: To determine the composition of different types and gross composition of skeletal muscle fibers, 10 μm thick transverse sections were made from TA muscles, a hydrophobic boundary was drawn around the section, and then blocked with 5% goat serum and 2% bovine serum albumin (BSA) in PBS for 30 minutes. The sections were then incubated for one hour with monoclonal antibodies against myosin heavy chain (MyHC) isoforms type I, IIa, and IIb using clone BA-D5, […], and BF-F3, respectively (Developmental Studies Hybridoma Bank, Iowa City, Iowa, USA). The following secondary antibodies were then used for detection after 1-2 hours of incubation period: anti-Mouse IgG2b (γ2b) CF™ 350 antibody produced in goat, anti-Mouse IgG1 (yl) CF™ 568 antibody produced in goat, and Alexa Fluor-488 goat anti-mouse IgM. Fluorescence images were captured with a Nikon TiE 3000 inverted microscope, the single-color channels were merged, and percentage of each fiber-type in whole muscle section was recorded. Nonspecific background staining was performed using the above protocol but omitting the inclusion of the primary antibodies. Antibodies BA-D5, SC-71, and BF-F3 were deposited to the DSHB by Schiaffino, S. (DSHB Hybridoma Product BA-D5, SC-71, and BF-F3).

CC1=C(CO)C(=O)O[C@@H]([C@@H](C)[C@H]2CC[C@H]3[C@@H]4C[C@H]5O[C@]56[C@@H](O)C=CC(=O)[C@]6(C)[C@H]4CC[C@]23C)C1 [WFA, (4β,5β,6β,22R)-4,27-Dihydroxy-5,6:22,26-diepoxyergosta-2,24-diene-1,26-dione]
bone mineral density or content [1]: No significant differences
proportion of lean tissue to body weight ([1]; all tumor-bearing groups vs control): significant increase in the proportion of lean tissue to body weight
proportion of adipose tissue to whole body weight ([1]; vs vehicle treated group): attenuation of adipose tissue
relative transcript levels of TNFα, IL-6, MIP-2, IFNγ in the heart ([2]; tumor-bearing WFA-treated groups): significantly reduced in the WFA-treated groups
transcript levels of IFNγ in the heart ([2]; tumor-bearing WFA-treated groups, normalized to tumor-bearing vehicle): significantly reduced in the WFA-treated groups
relative transcript level of AT2R in the heart ([2]; tumor-bearing, WFA 2 mg/kg): 3.5±1.8 fold
relative transcript level of AT2R in the heart ([2]; tumor-bearing, WFA 4 mg/kg): 5.2±3.2 fold
reduction in relative transcript levels of Troponin-I (Tn-I) in heart ([2]; tumor-bearing, both doses, vs tumor-bearing vehicle): significantly blunted
relative transcript levels of angiotensinogen in tumor samples (angiotensinogen (AGT); WFA 2 mg/kg): 0.3676±0.252 fold change
relative transcript levels of angiotensinogen in tumor samples (angiotensinogen (AGT); WFA 4 mg/kg): 0.0694±0.144 fold change
normalized weights of the bilateral ovaries ([3]; WFA 2 mg/kg): 10.38±1.32 mg/g IBW
weight of visible tumors ([3]; WFA 2 mg/kg): 1.6 ± 0.19 g
normalized weights of the bilateral ovaries ([3]; WFA 4 mg/kg): 12.05±2.09 mg/g IBW
weight of visible tumors ([3]; WFA 4 mg/kg): 1.9 ± 0.35 g
cell cycle arrest and apoptosis (CAOV3): induces cell cycle arrest and the induction of apoptosis
pan-ubiquitination of proteins (immunoblot) [4]: reduced in response to WFA treatment
proportion of Type IIb myofibers in TA muscle ([5]; 2 and 6 mg/kg, vs control and vehicle treated groups): significantly reduced in the WFA treated groups in a dose-dependent manner
percentage of Type IIa myofibers in TA muscle ([5]; 2 and 6 mg/kg, vs vehicle treated and control groups): significant increase in Type IIa myofibers
percentage of Type I myofibers in TA muscle ([5]; all groups): no significant differences were found
percentage of Type IIx myofibers in TA muscle ([5]; all groups): no significant differences were elucidated upon post hoc analysis
